Reference: patent publication US10167262B2, “Herbicidal substituted 3-arylpyrazoles” (FMC CORPORATION, priority 2014, dated 2019)

Key:
Assay in all cases: Test E pre-/postemergence greenhouse test, plant response rating 0-100
Assay type in all cases: in vivo
[1] = system: arrowleaf sida (Sida rhombifolia); settings: Postemergence
Source text: (§1) Seeds of plant species selected from corn (Zea mays), soybean (Glycine max), velvetleaf (Abutilon theophrasti), lambsquarters (Chenopodium album), wild poinsettia (Euphorbia heterophylla), palmer pigweed (Amaranthus palmeri), waterhemp (common waterhemp, Amaranthus rudis), surinam grass (Brachiaria decumbens), large (Lg) crabgrass (Digitaria sanguinalis), Brazilian crabgrass (Digitaria horizontalis), fall panicum (Panicum dichotomiflorum), giant foxtail (Setaria faberii), green foxtail (Setaria viridis), goosegrass (Eleusine indica), johnsongrass (Sorghum halepense), ragweed (common ragweed, Ambrosia elatior), barnyardgrass (Echinochloa crus-galli), sandbur (southern sandbur, Cenchrus echinatus), arrowleaf sida (Sida rhombifolia), Italian ryegrass (Lolium multiflorum), dayflower (Virginia (VA) dayflower, Commelina virginica), field bindweed (Convolvulus arvensis), morningglory (Ipomoea coccinea), nightshade (eastern black nightshade, Solanum ptycanthum), kochia (Kochia scoparia), yellow nutsedge (Cyperus esculentus), smartweed (ladysthumb smartweed, Polygonum persicaria), cocklebur (common cocklebur, Xanthium strumarium), and hairy beggarticks (Bidens pilosa), were planted into a silt loam soil and treated preemergence with test chemicals formulated in a non-phytotoxic solvent mixture which included a surfactant.
(§2) At the same time, plants from these crop and weed species and also waterhemp_RES1, (ALS & Triazine resistant common waterhemp, Amaranthus rudis), and waterhemp_RES2, (ALS & HPPD resistant common waterhemp, Amaranthus rudis) were planted in pots containing Redi-Earth® planting medium (Scotts Company, 14111 Scottslawn Road, Marysville, Ohio 43041) comprising spaghnum peat moss, vermiculite, wetting agent and starter nutrients were treated with postemergence applications of test chemicals formulated in the same manner. Plants ranged in height from 2 to 18 cm for postemergence treatments (1- to 4-leaf stage).
(§3) Treated plants and controls were maintained in a greenhouse for 14 to 21 days, after which time all species were compared to controls and visually evaluated. Plant response ratings, summarized in Table E, are based on a scale of 0 to 100 where 0 is no effect and 100 is complete control. A dash (-) response means no test result.

[2] = system: waterhemp (common waterhemp, Amaranthus rudis); settings: Postemergence, scale 0 to 100
Source text: as §1, §2, §3

[3] = system: sandbur (southern sandbur, Cenchrus echinatus); settings: Postemergence, scale 0 to 100
Source text: as §1, §2, §3

[4] = system: barnyardgrass (Echinochloa crus-galli); settings: Postemergence, scale 0 to 100
Source text: as §1, §2, §3

[5] = system: wild poinsettia (Euphorbia heterophylla); settings: Postemergence, scale 0 to 100
Source text: as §1, §2, §3

[6] = system: palmer pigweed (Amaranthus palmeri); settings: Postemergence, scale 0 to 100
Source text: as §1, §2, §3

[7] = system: corn (Zea mays); settings: Postemergence, scale 0 to 100
Source text: as §1, §2, §3

[8] = system: soybean (Glycine max); settings: Postemergence, scale 0 to 100
Source text: as §1, §2, §3

[9] = system: Brazilian crabgrass (Digitaria horizontalis); settings: Postemergence, scale 0 to 100
Source text: as §1, §2, §3

[10] = system: dayflower (Virginia (VA) dayflower, Commelina virginica); settings: Postemergence, scale 0 to 100
Source text: as §1, §2, §3

[11] = system: Italian ryegrass (Lolium multiflorum); settings: Postemergence, scale 0 to 100
Source text: as §1, §2, §3

## CCn1cc(C(=O)c2cccs2)c(-c2cc(Cl)cc(Cl)c2)n1 [Compound 18]
[1]; 31 g ai/ha, scale 0 to 100
  Plant response rating, Arrowleaf Sida: 60
[1]; 62 g ai/ha, scale 0 to 100
  Plant response rating, Arrowleaf Sida: 70
[1]; 125 g ai/ha, scale 0 to 100
  Plant response rating, Arrowleaf Sida: 80
[1]; 250 g ai/ha, scale 0 to 100
  Plant response rating, Arrowleaf Sida: 80
[1]; 500 g ai/ha, scale 0 to 100 (0 no effect, 100 complete control)
  Plant response rating, Arrowleaf Sida: 85
[2]; 31 g ai/ha
  Plant response rating, Waterhemp: 50
[2]; 62 g ai/ha
  Plant response rating, Waterhemp: 75
[2]; 125 g ai/ha
  Plant response rating, Waterhemp: 85
[2]; 250 g ai/ha
  Plant response rating, Waterhemp: 90
[2]; 500 g ai/ha
  Plant response rating, Waterhemp: 95
[3]; 31 g ai/ha
  Plant response rating, Sandbur: 0
[3]; 62 g ai/ha
  Plant response rating, Sandbur: 0
[3]; 125 g ai/ha
  Plant response rating, Sandbur: 0
[3]; 250 g ai/ha
  Plant response rating, Sandbur: 15
[3]; 500 g ai/ha
  Plant response rating, Sandbur: 20
[4]; 31 g ai/ha
  Plant response rating, Barnyardgrass: 0
[4]; 62 g ai/ha
  Plant response rating, Barnyardgrass: 10
[4]; 125 g ai/ha
  Plant response rating, Barnyardgrass: 20
[4]; 250 g ai/ha
  Plant response rating, Barnyardgrass: 25
[4]; 500 g ai/ha
  Plant response rating, Barnyardgrass: 25
[5]; 31 g ai/ha
  Plant response rating, Poinsettia, Wild: 5
[5]; 62 g ai/ha
  Plant response rating, Poinsettia, Wild: 20
[5]; 125 g ai/ha
  Plant response rating, Poinsettia, Wild: 30
[5]; 250 g ai/ha
  Plant response rating, Poinsettia, Wild: 30
[5]; 500 g ai/ha
  Plant response rating, Poinsettia, Wild: 40
[6]; 31 g ai/ha
  Plant response rating, Pigweed, Palmer: 90
[6]; 62 g ai/ha
  Plant response rating, Pigweed, Palmer: 90
[6]; 125 g ai/ha
  Plant response rating, Pigweed, Palmer: 90
[6]; 250 g ai/ha
  Plant response rating, Pigweed, Palmer: 98
[6]; 500 g ai/ha
  Plant response rating, Pigweed, Palmer: 98
[7]; 31 g ai/ha
  Plant response rating, Corn: 0
[7]; 62 g ai/ha
  Plant response rating, Corn: 0
[7]; 125 g ai/ha
  Plant response rating, Corn: 0
[7]; 250 g ai/ha
  Plant response rating, Corn: 0
[7]; 500 g ai/ha
  Plant response rating, Corn: 10
[8]; 31 g ai/ha
  Plant response rating, Soybean: 0
[8]; 62 g ai/ha
  Plant response rating, Soybean: 0
[8]; 125 g ai/ha
  Plant response rating, Soybean: 10
[8]; 250 g ai/ha
  Plant response rating, Soybean: 20
[8]; 500 g ai/ha
  Plant response rating, Soybean: 30
[9]; 31 g ai/ha
  Plant response rating, Crabgrass, Brazil: 0
[9]; 62 g ai/ha
  Plant response rating, Crabgrass, Brazil: 5
[9]; 125 g ai/ha
  Plant response rating, Crabgrass, Brazil: 15
[9]; 250 g ai/ha
  Plant response rating, Crabgrass, Brazil: 20
[9]; 500 g ai/ha
  Plant response rating, Crabgrass, Brazil: 20
[10]; 31 g ai/ha
  Plant response rating, Dayflower, VA: 0
[10]; 62 g ai/ha
  Plant response rating, Dayflower, VA: 0
[10]; 125 g ai/ha
  Plant response rating, Dayflower, VA: 0
[10]; 250 g ai/ha
  Plant response rating, Dayflower, VA: 0
[10]; 500 g ai/ha
  Plant response rating, Dayflower, VA: 5
[11]; 31 g ai/ha
  Plant response rating, Ryegrass, Italian: 0
[11]; 62 g ai/ha
  Plant response rating, Ryegrass, Italian: 0
[11]; 125 g ai/ha
  Plant response rating, Ryegrass, Italian: 0
[11]; 250 g ai/ha
  Plant response rating, Ryegrass, Italian: 0
[11]; 500 g ai/ha
  Plant response rating, Ryegrass, Italian: 0
